In data set [1] the target is T1, mouse KOR (Mus musculus, UniProt P33534). Put plainly: cell-based. It counts as cell-based. Details: expressed in transfected cells. The settings on record: for activity at KOR in the functional cAMP assay: agonist mode, ligand on its own, up to concentrations of 10 μM; for EC50: HEK293 cells stably expressing mouse KOR, forskolin 10 μM, n.a. = not active, read-out: potency/efficacy cAMP EC50 ± SD; for Emax: read-out: potency/efficacy cAMP Emax ± SD. (In general: cAMP levels reflect the balance of adenylyl cyclase and phosphodiesterase activity.)
T1 sequence (P33534 whole entry): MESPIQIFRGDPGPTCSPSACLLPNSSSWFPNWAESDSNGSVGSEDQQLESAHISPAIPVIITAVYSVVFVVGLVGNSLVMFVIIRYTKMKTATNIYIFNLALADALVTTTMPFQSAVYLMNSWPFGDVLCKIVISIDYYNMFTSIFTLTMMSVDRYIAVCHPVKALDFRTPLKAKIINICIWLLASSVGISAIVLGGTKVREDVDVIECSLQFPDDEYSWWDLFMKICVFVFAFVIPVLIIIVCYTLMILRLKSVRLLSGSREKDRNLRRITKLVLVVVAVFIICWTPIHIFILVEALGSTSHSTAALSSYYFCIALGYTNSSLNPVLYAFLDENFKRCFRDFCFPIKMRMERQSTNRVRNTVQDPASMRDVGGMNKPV

The nature of data set [2]: stability assay in human serum (RP-HPLC). The class given is in vitro ADME. The settings on record: 37 °C. The method, then:
The stability of peptide ligands was determined with human serum from male AB plasma (Sigma) centrifuged at 13,300g for 10 min to remove the lipid content. The supernatant was preincubated at 37 °C for 5 min before 10 μL of a peptide stock solution (3 mg/mL in H2O) was added to 300 μL of serum. A reference solution was prepared in phosphate-buffered saline (PBS) buffer. The serum was incubated at 37 °C and analyzed over a time course of 5 h with 40 μL of aliquots removed at time points T = 0, 15, 30, 60, 90, 120, 240, and 300 min. Each aliquot was quenched with 40 μL of 5 M urea and incubated on ice for 10 min. The proteins were then precipitated with the addition of 40 μL of 20% (w/v) trichloroacetic acid and further incubated on ice for 10 min. The samples were centrifuged for 10 min at 15,000g, and the supernatant was analyzed by analytical RP-HPLC using a Phenomenex Jupiter C18 column (5 μm, 300 Å, 150 × 2 mm) using a linear gradient from 0 to 50% solvent B (90% acetonitrile, 10% H2O, and 0.05% trifluoroacetic acid) and a flow rate of 1 mL/min. The percentage of peptide remaining was determined by the integration of the analyte in comparison to T = 0 min. The peptides were analyzed in triplicate, and data were fitted to an exponential decay curve using GraphPad Prism software.

For data set [3], the target named is T1, mouse KOR. It counts as cell-based. Details: expressed in transfected cells; host or cells: HEK293 (transient co-transfection, 1:10 ratio). The settings on record: 10 μM ligand; compared to dynA1–13-NH2 = 100%.
Data set [4] deals with T1, mouse KOR. The data set is described as follows: biochemical. It counts as binding. Details: expressed in transfected cells.
Data set [5] deals with mice. The data set is described as follows: radiant heat tail-flick assay. The class given is in vivo, mouse. The settings on record: 10 mg/kg s.c., 24 h before U50,488 5 mg/kg. On the procedure: (§1) Breeding, euthanasia, and all procedures of animal handling were performed according to the regulations of animal care and welfare. Experiments were carried out in accordance with the European Communities Council Directive of 24 November 1986 (86/609/EEC). Behavioral experiments were performed in male CD1 mice (8–10 weeks old) purchased from Janvier Labs (Le Genest-Saint-Isle, France). All animal care and experimental procedures were in accordance with the ethical guidelines for the animal welfare standards of the European Communities Council Directive (2010/63/EU) and were approved by the Committee of Animal Care of the Austrian Federal Ministry of Science and Research. […]
The radiant heat tail-flick test was performed using an UB 37360 Ugo Basile analgesiometer (Ugo Basile s.r.l., Varese, Italy) as described previously.[52] The reaction time required by the mouse to remove its tail after application of the radiant heat was measured and defined as the tail-flick latency (in seconds). Tail-flick latencies were measured before and after s.c. administration of saline (control) or U50,488 (5 mg/kg) (i.e., 30 and 60 min) (test latency, TL). […] The antinociceptive effect (as the percentage of the maximum possible effect, % MPE) was calculated according to the formula = [(TL – BL)/(cutoff time – BL)] × 100 where TL represents the test latency and BL is the basal latency.

Data set [6] relates to mice. Put plainly: rotarod test. It counts as in vivo, mouse. The settings on record: 10 mg/kg s.c., 24 h before U50,488 5 mg/kg; at 30 min. On the procedure: as §1, with “Research. Mice were group-housed in a temperature-controlled specific pathogen-free room with a 12 h light/dark cycle and with free access to food and water.” for “Research.”
The rotarod test was performed using the accelerating rotarod treadmill (Acceler Rota-Rod 7650, Ugo Basile s.r.l., Varese, Italy) for mice (diameter 3.5 cm) as described previously.[53] […] The time spent on the drum was recorded for each mouse before (baseline) and at 30 min after s.c. administration of saline (control) or U50,488 (5 mg/kg). […] The rotarod data are expressed as percentage (%) changes from the rotarod latencies obtained before (baseline, BL) and after drug administration (test, TL) calculated as 100 × (TL/BL).
On the technique in general: The rotarod test checks motor coordination on a turning rod.

The next data set concerns DRG neurons. The data set is described as follows: single-cell calcium microfluorimetry in DRG neurons. It counts as cell-based, mouse. The settings on record: 0.5 μM pre-applied, U50,488 10 μM.
Setting [7] is: 1 nM [3H]-diprenorphine, HEK293 cell membranes stably expressing mouse KOR, read-out: affinity Ki ± SD.

The structures appear in SMILES notation. Where a name gives a salt, the structure may show the parent alone. Read-outs that look alike come from different tables or passages of the source. Numbered stars: 1 amine (or outer) side, 2 acyl side, 3 side chain; on linkers, the order of the positions; unused ones are H or OH. Bridge positions count the residues as written; N and C are the ends. Square brackets hold non-standard residues; d marks the D form. Peptide text beside a SMILES is read from it. CH2COCH2 = O=C(C[*:1])C[*:2]; CH2 = C([*:1])[*:2]; Mpa = O=C(O)CCS

As to `CC(C)C[C@H](NC(=O)[C@H](CCCCN)NC(=O)[C@@H]1CCCN1C(=O)[C@H](CCCNC(=N)N)NC(=O)[C@@H]1CSCSCCC(=O)N[C@@H](Cc2ccc(O)cc2)C(=O)NCC(=O)NCC(=O)N[C@@H](Cc2ccccc2)C(=O)N[C@@H](CC(C)C)C(=O)N[C@@H](CCCNC(=N)N)C(=O)N[C@@H](CCCNC(=N)N)C(=O)N1)C(=O)N[C@@H](CCCCN)C(N)=O` [CSD-CH2(1,8)-NH2] ([Mpa]YGGFLRRCRPKLK-NH2; linker 1-9 via CH2), the “activity at KOR in the functional cAMP assay” value (“activity at KOR” below) at mouse KOR [1] is “inactive”. Further, in data set [2], the “t1/2 in human serum” value came to 95 min.

`CC(C)C[C@H](NC(=O)[C@H](CCCCN)NC(=O)[C@@H]1CCCN1C(=O)[C@H](CCCNC(=N)N)NC(=O)[C@@H]1CSCSCCC(=O)N[C@@H](Cc2ccc(O)cc2)C(=O)NCC(=O)NCC(=O)N[C@@H](Cc2ccccc2)C(=O)N[C@@H](CC(C)C)C(=O)N[C@@H](CCCNC(=N)N)C(=O)N[C@@H](CCCNC(=N)N)C(=O)N1)C(=O)N[C@@H](CCCCN)C(=O)O` [CSD-CH2(1,8)-OH] ([Mpa]YGGFLRRCRPKLK-OH; linker 1-9 via CH2): on mouse KOR [1], the “activity at KOR” value is “inactive”.

Consider `CC[C@H](C)[C@@H]1NC(=O)[C@H](CCCNC(=N)N)NC(=O)[C@H](CCCNC(=N)N)NC(=O)[C@H](CC(C)C)NC(=O)[C@H](Cc2ccccc2)NC(=O)CNC(=O)CNC(=O)[C@H](Cc2ccc(O)cc2)NC(=O)CCSCSC[C@@H](C(=O)N[C@@H](CCCCN)C(=O)N[C@@H](CC(C)C)C(=O)N[C@@H](CCCCN)C(N)=O)NC(=O)[C@H](CCCNC(=N)N)NC1=O` [CSD-CH2(1,10)-NH2] ([Mpa]YGGFLRRIRCKLK-NH2; linker 1-11 via CH2), for which, at mouse KOR [1], the EC50 came out at 540 nM and the Emax is 49 ± 15%. For the same molecule, the “β-arrestin-2 recruitment efficiency (ligand induced BRET)” value (“β-arrestin-2 recruitment efficiency” for short) on mouse KOR [3] was determined as 38%. Further, the Ki (commonly a measure of affinity in units of concentration, obtained from inhibition or displacement) at mouse KOR [4] was 6 nM. In addition, at mouse KOR [4] (setting [7]), the Ki was 5.6 nM. In addition, the “improvement of KOR affinity by C-terminal amidation” value on mouse KOR [4] (versus counterpart with C-terminal carboxylic acid) is recorded as around 6 fold.

As to `CC[C@H](C)[C@@H]1NC(=O)[C@H](CCCNC(=N)N)NC(=O)[C@H](CCCNC(=N)N)NC(=O)[C@H](CC(C)C)NC(=O)[C@H](Cc2ccccc2)NC(=O)CNC(=O)CNC(=O)[C@H](Cc2ccc(O)cc2)NC(=O)CCSCSC[C@@H](C(=O)N[C@@H](CCCCN)C(=O)N[C@@H](CC(C)C)C(=O)N[C@@H](CCCCN)C(=O)O)NC(=O)[C@H](CCCNC(=N)N)NC1=O` [CSD-CH2(1,10)-OH] ([Mpa]YGGFLRRIRCKLK-OH; linker 1-11 via CH2), at mouse KOR [1], the “activity at KOR” value is “inactive”. Besides, the “β-arrestin-2 recruitment efficiency” value on mouse KOR [3] is listed as “less than 25%”. For the same molecule, on mouse KOR [4] (setting [7]), the Ki was 31 nM.

As to `CC(C)C[C@H](NC(=O)[C@H](CCCCN)NC(=O)[C@@H]1CCCN1C(=O)[C@H](CCCNC(=N)N)NC(=O)[C@@H]1CSCC(=O)CSCCC(=O)N[C@@H](Cc2ccc(O)cc2)C(=O)NCC(=O)NCC(=O)N[C@@H](Cc2ccccc2)C(=O)N[C@@H](CC(C)C)C(=O)N[C@@H](CCCNC(=N)N)C(=O)N[C@@H](CCCNC(=N)N)C(=O)N1)C(=O)N[C@@H](CCCCN)C(N)=O` [CSD-ace(1,8)-NH2] ([Mpa]YGGFLRRCRPKLK-NH2; linker 1-9 via CH2COCH2), the Emax at mouse KOR [1] stood at 73 ± 14%.

`CC(C)C[C@H](NC(=O)[C@H](CCCCN)NC(=O)[C@@H]1CCCN1C(=O)[C@H](CCCNC(=N)N)NC(=O)[C@@H]1CSCC(=O)CSCCC(=O)N[C@@H](Cc2ccc(O)cc2)C(=O)NCC(=O)NCC(=O)N[C@@H](Cc2ccccc2)C(=O)N[C@@H](CC(C)C)C(=O)N[C@@H](CCCNC(=N)N)C(=O)N[C@@H](CCCNC(=N)N)C(=O)N1)C(=O)N[C@@H](CCCCN)C(=O)O` [CSD-ace(1,8)-OH] ([Mpa]YGGFLRRCRPKLK-OH; linker 1-9 via CH2COCH2): the Emax on mouse KOR [1] worked out at 57 ± 11%.

`CC[C@H](C)[C@H](NC(=O)[C@H](CCCNC(=N)N)NC(=O)[C@H](CCCNC(=N)N)NC(=O)[C@H](CC(C)C)NC(=O)[C@H](Cc1ccccc1)NC(=O)CNC(=O)CNC(=O)[C@@H](N)Cc1ccc(O)cc1)C(=O)N[C@@H](CCCNC(=N)N)C(=O)N1CCC[C@H]1C(=O)N[C@@H](CCCCN)C(=O)N[C@@H](CC(C)C)C(=O)N[C@@H](CCCCN)C(N)=O` [dynA1–13-NH2, Dynorphin (dyn) A1–13 amide trifluoroacetate salt, reference compound]: at mouse KOR [1], the EC50 was determined as 9.1 nM and the Emax came to 100%. Moreover, the “t1/2 in human serum” value in data set [2] came out at 4 min. On mouse KOR [3], the “β-arrestin-2 recruitment efficiency” value is 100%.

Consider `Oc1ccc2c3c1O[C@H]1c4[nH]c5c(c4C[C@@]4(O)[C@@H](C2)N(CC2CC2)CC[C@]314)C[C@@]1(O)[C@H]2Cc3ccc(O)c4c3[C@@]1(CCN2CC1CC1)[C@H]5O4` [nor-BNI, norbinaltorphimine], for which the “antagonism of U50,488-induced antinociception” value in the data set with mice [5] was “blocked the antinociceptive response of U50,488”. For the same molecule, in the data set with mice [6], the “antagonism of U50,488 effect in the rotarod test” value is listed as “Antagonism”. In addition, the “effect on U50,488-induced calcium signals in DRG neurons” value in the data set with DRG neurons was “inhibited the activity of U50,488”.

The values are drawn from article PMC10510397, “Development of a Selective Peptide κ-Opioid Receptor Antagonist by Late-Stage Functionalization with Cysteine Staples” (Journal of Medicinal Chemistry, 2023).
